Where two headings read alike, the source gives them in different places.
How the values were obtained:
TcMCP-1 = TcMCP-1 (Trypanosoma cruzi, UniProt Q6ZXC0); assay: Continuous fluorogenic (FRET) TcMCP-1 assay with Abz-LKFK(Dnp)-OH, primary and secondary screening; type: biochemical; design: inhibition: dose or concentration left out as unconfirmed
Description: (§1) TcMCP-1 (MEROPS ID: M32.003) and TbMCP-1 were expressed as GST fusion proteins in E. coli BL21 (DE3) Codon Plus and purified as previously described.
(§2) TbMCP-1 and TcMCP-1 activities were assayed fluorometrically with Abz-RFFK(Dnp)-OH and Abz-LKFK(Dnp)-OH substrates, respectively, in 100 mM MOPS pH 7,2 containing 0,01% Triton X-100. Assays were performed in solid black 384-well plates (final reaction volume ~80 μL) and the hydrolysis of the K(Dnp)-OH group was monitored continuously at 30 °C with a Beckman Coulter DTX 880 Multimode Reader (Radnor, Pennsylvania, USA) using standard 320 nm excitation and 420 nm emission filter set.
(§3) In all cases, EDTA (final concentration 31,25 mM) was used as positive inhibition control.
(§4) Then, 40 μL of 100 mM MOPS, 0,01% Triton X-100 pH 7,2 containing TbMCP-1 (2,50 nM) or TcMCP-1 (0,34 nM) were added to each well, plates were homogenized (30 seg, orbital, medium intensity) and each well subjected to a single autofluorescence read (ex/em = 320/420 nm). Plates were incubated in darkness for 15 min at 30 °C and then 40 μL of Abz-RFFK(Dnp)-OH (4 μM) or Abz-LKFK(Dnp)-OH (0,8 μM) in assay buffer were added to each well to start the reaction. After homogenization (30 seg, orbital, medium intensity), the fluorescence of the Abz group (ortho-aminobenzoic acid) (ex/em = 320/420 nm) was acquired kinetically for each well (8 read cycles, one cycle every 300 seconds). Considering our previous experiences, the auto-fluorescent cut-off was arbitrarily set at 2x10^5 RFU to discard highly interfering compounds. All compounds were assayed in singlet (without replicates) due to the limited availability of stocks.
(§5) Raw screening measurements were used to determine the slope (dF/dt) of progression curves by linear regression for control and non-interfering compound wells. In the case of control-dependent hit selection criteria, percent inhibition percentage (%Inh) was calculated for each compound according to the following equation: Inh=100∙[1−(dF/dt^WELL−μ^C−)/(μ^C+−μ^C−)] (1) where dF/dt^WELL represents the slope of each compound well and μ^C+ and μ^C− the average of MCP (no-inhibition) and substrate (no-enzyme) controls, respectively.
(§6) Compounds selected from primary screening were re-tested in a dose-response manner (final concentration ranging from 7,5 to 62,5 μM) using identical assay conditions. To avoid any positional and/or association bias, we randomly defined the row position for each compound. One μL of compounds stock (10 mM in DMSO) and EDTA (31,25 mM) were added to the first well of column 1, followed by addition of 40 μL of 100 mM MOPS, 0,01% Triton X-100 pH 7,2 buffer. After addition of 20 μL of the same buffer to subsequent wells of the plate, 22 serial 2-fold dilutions were made horizontally. The last two positions of every row were used, alternatively, for C^+ and C^− controls to reduce any positional and/or association bias. Then, 20 μL of activity buffer containing TbMCP-1 or TcMCP-1 were added to each well, except for those corresponding to C^−; completed with 20 μL of activity buffer. After homogenization, 15 minutes of incubation at 30°C and autofluorescence measurement, the substrate (in activity buffer) was added to the previous mix. Data collection and processing were performed exactly as described above. Percentage of M32 MCPs residual activity was calculated for each condition according to the following equation: %Res.Act^MCP=100∙[(dF/dt^WELL−μ^C−)/(μ^C+−μ^C−)] (2) where dF/dt^WELL represents the slope of each compound well and μ^C+ and μ^C− the average of MCP (no-inhibition) and substrate (no-enzyme) controls, respectively.

TbMCP-1 = TbMCP-1 (Trypanosoma brucei, UniProt Q386R0); assay: Continuous fluorogenic (FRET) TbMCP-1 assay with Abz-RFFK(Dnp)-OH, primary and secondary screening; type: biochemical
Sequence of TbMCP-1 (Q386R0 entry or part of it): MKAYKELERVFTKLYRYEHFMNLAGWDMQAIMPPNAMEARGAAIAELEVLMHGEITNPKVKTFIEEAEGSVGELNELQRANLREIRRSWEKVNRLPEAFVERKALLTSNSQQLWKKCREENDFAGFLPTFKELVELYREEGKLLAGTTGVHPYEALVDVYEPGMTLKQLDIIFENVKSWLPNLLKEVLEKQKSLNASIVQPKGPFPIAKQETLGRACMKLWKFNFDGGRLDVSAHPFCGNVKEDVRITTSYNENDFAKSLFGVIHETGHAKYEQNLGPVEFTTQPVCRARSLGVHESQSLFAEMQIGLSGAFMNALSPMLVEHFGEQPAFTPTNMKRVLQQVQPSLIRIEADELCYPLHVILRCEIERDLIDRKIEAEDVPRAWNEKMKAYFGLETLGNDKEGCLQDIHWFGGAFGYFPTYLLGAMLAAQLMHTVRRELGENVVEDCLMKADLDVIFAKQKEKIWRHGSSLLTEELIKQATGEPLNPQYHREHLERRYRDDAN
Description: as §1, §2, §3, §4, §5
as §6, with “To” for “Compounds selected from primary screening were re-tested in a dose-response manner (final concentration ranging from 7,5 to 62,5 μM) using identical assay conditions. To”

L. donovani = test system: L. donovani; design: method as in https://pubchem.ncbi.nlm.nih.gov/compound/91800813; conditions: ref https://pubchem.ncbi.nlm.nih.gov/compound/91800813; cited from earlier work
cruzipain = test system: cruzipain; design: method as in PMID 28935948; conditions: at 25 μM; cited from earlier work
HepG2 = test system: HepG2; design: method as in https://pubchem.ncbi.nlm.nih.gov/compound/91800813; conditions: ref https://pubchem.ncbi.nlm.nih.gov/compound/91800813, read-out: cytotoxicity IC50; cited from earlier work
NIH 3T3 = test system: NIH 3T3; design: method as in https://pubchem.ncbi.nlm.nih.gov/compound/91800813; conditions: ref https://pubchem.ncbi.nlm.nih.gov/compound/91800813, read-out: cytotoxicity IC50; cited from earlier work
T. cruzi = test system: T. cruzi; design: method as in https://pubchem.ncbi.nlm.nih.gov/compound/91800813; conditions: ref https://pubchem.ncbi.nlm.nih.gov/compound/91800813; cited from earlier work
T. brucei = test system: T. brucei; design: method as in https://pubchem.ncbi.nlm.nih.gov/compound/91800813; conditions: ref https://pubchem.ncbi.nlm.nih.gov/compound/91800813; cited from earlier work
[1] = four-parameter Hill fit of dose-response curve
[2] = secondary (31,5 µM) / primary (25 µM) inhibition

Sequence of TcMCP-1 (Q6ZXC0 entry or part of it): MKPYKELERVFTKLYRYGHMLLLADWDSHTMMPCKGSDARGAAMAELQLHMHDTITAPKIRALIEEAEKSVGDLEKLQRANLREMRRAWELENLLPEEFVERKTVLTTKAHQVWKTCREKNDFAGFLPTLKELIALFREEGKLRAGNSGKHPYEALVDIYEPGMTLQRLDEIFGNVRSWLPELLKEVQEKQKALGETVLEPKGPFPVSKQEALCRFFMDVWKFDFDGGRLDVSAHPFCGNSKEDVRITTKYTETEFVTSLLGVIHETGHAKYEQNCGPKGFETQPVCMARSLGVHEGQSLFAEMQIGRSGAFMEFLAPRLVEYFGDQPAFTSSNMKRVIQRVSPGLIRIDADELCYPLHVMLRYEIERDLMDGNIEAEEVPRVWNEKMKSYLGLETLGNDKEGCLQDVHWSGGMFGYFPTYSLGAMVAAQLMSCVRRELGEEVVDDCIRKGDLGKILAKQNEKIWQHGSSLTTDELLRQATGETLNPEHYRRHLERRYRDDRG

**Q.** With `N#Cc1ccc(S(=O)(=O)N2CCN(Cc3cccc(-c4ccncc4)c3)CC2)cc1` [TCMDC-143620] as the compound, how does the IC50 (TcMCP-1) read?
**A.** 0.694 µM

**Q.** And the “TcMCP-1 Hill Slope” value (TcMCP-1; [1])?
**A.** -1,06

**Q.** What about the inhibition (TcMCP-1; read-out: TcMCP-1 Secondary screening Inhibition (%)) of the same compound?
**A.** 96.7%

**Q.** What about the “TcMCP-1 2º/1º ratio” value (TcMCP-1; [2]) of the same compound?
**A.** 1,18

**Q.** What about the IC50 (TcMCP-1; secondary screening, two-fold dilutions 7,5 pM to 62,5 μM, KM/[S] ~ 1, no replicates) of the same compound?
**A.** ≤ 10 µM

**Q.** What about the inhibition at 25 µM (TcMCP-1; single inhibitor concentration 25 µM) of the same compound?
**A.** 82.1%

**Q.** What about the “potency on TbMCP-1 lower than on TcMCP-1” value (TbMCP-1; TbMCP-1 vs TcMCP-1) of the same compound?
**A.** ~ 7 fold

**Q.** And the “TbMCP-1 Hill Slope” value (TbMCP-1; [1])?
**A.** -1,461

**Q.** And the “TbMCP-1 2º/1º ratio” value (TbMCP-1; [2])?
**A.** 2,14

**Q.** What about the inhibition at 25 µM (TbMCP-1; single inhibitor concentration 25 µM, read-out: TbMCP-1 Primary screening Inhibition (%)) of the same compound?
**A.** 45.2%

**Q.** And the inhibition (TbMCP-1; single inhibitor concentration 31,5 µM)?
**A.** 96.6%

**Q.** And the “activity on L. donovani” value (L. donovani)?
**A.** moderate but measurable activity

**Q.** What about the cruzipain inhibition (cruzipain) of the same compound?
**A.** ~ 7,5%

**Q.** And the IC50 (HepG2)?
**A.** > 100 µM

**Q.** And the IC50 (NIH 3T3)?
**A.** 13 µM

**Q.** And the “activity against T. cruzi in culture” value (T. cruzi)?
**A.** potent activity

**Q.** And the “activity on T. brucei” value (T. brucei)?
**A.** moderate but measurable activity
